Results from US12642870B2, “Compositions and methods for delivery of nucleic acids” (Poseida Therapeutics, Inc., priority 2020, dated 2026).

Tests used:
[1] = Particle size and PDI of hand-mixed mRNA or DNA LNPs; format: physicochemical; settings: for PDI DNA / Particle Size (nm) DNA: hand-mixed DNA LNPs: compound/DOPE/Cholesterol/DMG-PEG2000 38/50/10.0/2.0, lipid:DNA 45:1; for PDI RNA / Particle Size (nm) RNA: hand-mixed mRNA LNPs: compound/DOPE/Cholesterol/DMG-PEG2000 41.44/45.85/10/2.7, lipid:RNA 40:1
Description: LNP compositions of the present disclosure comprising exemplary compounds of Formula (I) were prepared by combining various percentages of an exemplary compound of Formula (I), the phospholipid DOPE, the structural lipid cholesterol (Chol) and 1,2-dimyristoyl-sn-glycerol methoxypolyethylene glycol (DMG-PEG2000; Avanti Polar Lipids, Alabaster, Alabama, USA).
Individual 25 mg/ml stock solutions were prepared by solubilizing the lipids in 200-proof HPLC-grade ethanol and stock solutions were stored at −80° C. until formulated. At the time of formulation, the lipid stock solutions were briefly allowed to equilibrate to room temp and then placed on a hot plate maintained at a temperature range of 50-55° C.
A 1 mg/ml solution of the desired mRNA or DNA to be incorporated into the LNPs was added to 150 mM sodium acetate buffer (pH 5.2) to form a stock solution and kept on ice. The aqueous mRNA or DNA was then added to the lipids as shown in Table 25 or 26 and hand-mixed vigorously with a single channel pipettor.
The resultant mRNA or DNA LNP compositions were then transferred to a Repligen Float-A-Lyzer dialysis device—having a molecular weight cut off (MWCO) of 8-10 kDa (Spectrum Chemical Mfg. Corp, CA, USA) and processed by dialysis against phosphate buffered saline (PBS) (dialysate:dialysis buffer volume at least 1:200 v/v), pH 7.4 overnight at 4° C. (or alternatively room temperature for at least 4 hours), to remove the 25% ethanol and achieve a complete buffer exchange. In some experiments the LNPs were further concentrated by in an Amicon® Ultra-4 centrifugal filter unit, MWCO-30 kDa (Millipore Sigma, USA) spun at ˜4100×g in an ultracentrifuge. The mRNA and DNA LNPs were then stored at 4° C. until further use.
LNP compositions of the present disclosure comprising mRNA or DNA encoding firefly luciferase (hereafter “Flue”; TriLink) and COMPOUNDS 9-21 were prepared as described in Example 14 by combining one of COMPOUNDS 9-21, the phospholipid DOPE, the structural lipid cholesterol (Chol) and 1,2-dimyristoyl-sn-glycerol methoxypolyethylene glycol (DMG-PEG2000) in the percentages presented in Tables 27 and 28:
The physical characteristics of the resulting LNPs were analyzed.

BALB/C mice = test: In vivo intramuscular LNP delivery of fLuciferase mRNA, bioluminescent imaging; settings: intramuscular 20 μg fLuciferase mRNA, right hind limb, BLI at 4 hr; LNP compound/DOPE/Cholesterol/DMG-PEG2000 33.5/32.0/33.5/1.0, lipid:RNA 25:1
Description: (§1) Adult female BALB/C mice (n=2/group) were intramuscularly administered in the right hind limb of each mouse 20 μg of 5′-CleanCap-fLuciferase mRNA (TriLink Biotech) formulated with LNP composition comprising COMPOUND 2 as prepared according to Example 2 in the following percentages shown in Table 16:
The location and extent of luciferase expression in treated and untreated mice were determined at 4 hr and 24 hr by bioluminescent imaging (BLI) of anesthetized mice using an IVIS Lumina in vivo imaging system (Perkin Elmer) according to the manufacturer's instructions. Briefly, mice were anesthetized using isoflurane in oxygen, and placed supine on a heated stage. Mice were then administered D-luciferin (Perkin-Elmer #122799) IP, and BLI was performed.
as §1, with “In another experiment, adult female” for “Adult female”, “comprising one of COMPOUNDS 3-8” for “comprising COMPOUND 2”, “Example 3” for “Example 2”, “Table 18:” for “Table 16:”
The location and extent of luciferase expression in treated and untreated mice were determined at 4 hr by bioluminescent imaging (BLI) of anesthetized mice as described above.

SMILES	PDI DNA [1]	Particle Size (nm) DNA [1] [nm]	PDI RNA [1]	Particle Size (nm) RNA [1] [nm]	Avg IM flux n = 2 (BALB/C mice)
CC(C)C(CCC(C)C(CCC1CCC(C(=O)OCCCCCCCCCCCCCCCCCCCCOC(=O)C2CCC(CCC(SCCN(C)C)C(C)CCC(SCCN(C)C)C(C)C)C(SCCN(C)C)C2)CC1SCCN(C)C)SCCN(C)C)SCCN(C)C (stereo not drawn) [Compound 12]	0.251	228.0	0.216	162.7	–
CC(C)C(CCC(C)C(CCC1CCC(C(=O)OCCCCCCOC(=O)C2CCC(CCC(SCCN(C)C)C(C)CCC(SCCN(C)C)C(C)C)C(SCCN(C)C)C2)CC1SCCN(C)C)SCCN(C)C)SCCN(C)C (stereo not drawn) [Compound 10]	0.403	291.2	0.120	254.1	–
CC(C)C(CCC(C)C(CCC1CCC(C(=O)OCCCCCCCCCCCCOC(=O)C2CCC(CCC(SCCN(C)C)C(C)CCC(SCCN(C)C)C(C)C)C(SCCN(C)C)C2)CC1SCCN(C)C)SCCN(C)C)SCCN(C)C (stereo not drawn) [Compound 11]	0.366	511.8	0.156	270.4	–
CC(C)C(CCC1CCC(C(=O)OCCCCCCCCCCCCOC(=O)C2CCC(CCC(SCCN(C)C)C(C)C)C(SCCN(C)C)C2)CC1SCCN(C)C)SCCN(C)C (stereo not drawn) [Compound 15]	0.201	375.6	0.208	267.1	–
CC(C)C(CCC1CCC(C(=O)OCCCCCCSCCCCCCCCSCCCCCCOC(=O)C2CCC(CCC(SCCN(C)C)C(C)C)C(SCCN(C)C)C2)CC1SCCN(C)C)SCCN(C)C (stereo not drawn) [Compound 21]	0.230	161.1	0.273	144.9	–
CC(C)C(CCC1CC2C(=O)N(c3ccc(N4C(=O)C5CC(CCC(SCCN(C)C)C(C)C)C(SCCN(C)C)CC5C4=O)cc3)C(=O)C2CC1SCCN(C)C)SCCN(C)C (stereo not drawn) [Compound 8]	–	–	–	–	8.31E+4
CC(C)C(CCC(C)C(CCC1CCC(C(=O)OCCCCCCSCCCCCCCCSCCCCCCOC(=O)C2CCC(CCC(SCCN(C)C)C(C)CCC(SCCN(C)C)C(C)C)C(SCCN(C)C)C2)CC1SCCN(C)C)SCCN(C)C)SCCN(C)C (stereo not drawn) [Compound 20]	0.189	229.6	0.211	221.0	–
CC(C)C(CCC1CCC(C(=O)OCCCCCCCCCCCCCCCCCCCCOC(=O)C2CCC(CCC(SCCN(C)C)C(C)C)C(SCCN(C)C)C2)CC1SCCN(C)C)SCCN(C)C (stereo not drawn) [Compound 16]	0.277	149.8	0.327	188.8	–
CC(C)C(CCC1CCC(C(=O)OCCCCCCOC(=O)C2CCC(CCC(SCCN(C)C)C(C)C)C(SCCN(C)C)C2)CC1SCCN(C)C)SCCN(C)C (stereo not drawn) [Compound 14]	0.272	392.2	0.249	222.5	–
